One may read the EC50 as the concentration at which the effect is half-maximal. Read a low EC50 as greater potency.

Our source for the EC50 values is patent US12679807B2 (MERCK SHARP & DOHME LLC, priority 2020, dated 2026).

For the assay, the target named is T1, GCS enzyme contained within Golgi preparations isolated from human A375 malignant melanoma skin cells (Homo sapiens, UniProt Q16739).
T1 construct: endogenous levels of GCS enzyme contained within Golgi preparations isolated from human A375 malignant melanoma skin cells; endogenous in cells; host or cells: A375 human malignant melanoma cells (crude Golgi preparation)
T1 sequence (Q16739 1-394): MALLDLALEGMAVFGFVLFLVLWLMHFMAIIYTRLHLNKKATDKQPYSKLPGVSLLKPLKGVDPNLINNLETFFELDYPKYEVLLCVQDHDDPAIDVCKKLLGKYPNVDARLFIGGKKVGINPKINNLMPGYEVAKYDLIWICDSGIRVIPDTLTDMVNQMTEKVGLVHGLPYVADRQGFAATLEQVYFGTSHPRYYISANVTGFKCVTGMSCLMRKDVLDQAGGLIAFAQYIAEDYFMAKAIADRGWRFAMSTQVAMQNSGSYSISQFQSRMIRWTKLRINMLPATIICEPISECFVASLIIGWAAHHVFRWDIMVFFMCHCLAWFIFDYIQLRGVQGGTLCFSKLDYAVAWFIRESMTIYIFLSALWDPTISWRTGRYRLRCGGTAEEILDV
As to the kind of experiment: UDP-Glo glucosylceramide synthase biochemical assay. The settings on record: crude Golgi preparation from A375 cells; C6 ceramide and UDP-glucose substrates; 20 h incubation at room temperature; UDP detected by luminescence. The gist of the method:
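Endogenous enzyme in A375 Golgi preparations (1.5 μg total protein) was preincubated 30 min with compound, then reacted 20 h at room temperature with UDP-glucose and ceramide.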
`Cc1nnc(-c2ccc(-c3ccc(Cl)c4c3C(=O)N([C@H](C3CC3)C(C)(C)O)C4)cc2)o1` [Compound 38, (R)-4-chloro-2-(1-cyclopropyl-2-hydroxy-2-methylpropyl)-7-(4-(5-methyl-1,3,4-oxadiazol-2-yl)phenyl)isoindolin-1-one] displayed a concentration for a half-maximal effect (EC50) of 0.55 nM.
Turning to `Cc1nnc(-c2ccc(-c3c(Cl)ccc4c3C(=O)N([C@H](C3CC3)C(C)(C)O)C4)cc2)o1` [Compound 40, (R)-6-chloro-2-(1-cyclopropyl-2-hydroxy-2-methylpropyl)-7-(4-(5-methyl-1,3,4-oxadiazol-2-yl)phenyl)isoindolin-1-one], the EC50 stood at 0.98 nM.
Turning to `Cc1nnc(-c2ccc(-c3c(F)cc(Cl)c4c3C(=O)N([C@H](C3CC3)C(C)(C)O)C4)cc2)o1` [Compound 41, (R)-4-chloro-2-(1-cyclopropyl-2-hydroxy-2-methylpropyl)-6-fluoro-7-(4-(5-methyl-1,3,4-oxadiazol-2-yl)phenyl)isoindolin-1-one], it took 0.25 nM to reach a half-maximal effect (EC50).
With `C[C@@H](N1Cc2cccc(-c3ccccc3OCC(F)(F)F)c2C1=O)C(C)(C)O` [Compound 46, (R)-2-(3-hydroxy-3-methylbutan-2-yl)-7-(2-(2,2,2-trifluoroethoxy)phenyl) isoindolin-1-one] the figure was 140 nM.
`CC[C@@H](N1Cc2cccc(-c3ccc(-c4nnc(C)o4)cc3)c2C1=O)C(C)(C)O` [Compound 48, 2-[(1R)-1-ethyl-2-hydroxy-2-methyl-propyl]-7-[4-(5-methyl-1,3,4-oxadiazol-2-yl)phenyl]isoindolin-1-one] registered an EC50 of 81 nM. Against the preceding molecule, the EC50 is about 1.7-fold lower.
Regarding `O=C1c2c(cccc2-c2ccccc2OCC(F)(F)F)CN1[C@@H](CO)C1CC1` [Compound 49, (R)-2-(1-cyclopropyl-2-hydroxyethyl)-7-(2-(2,2,2-trifluoroethoxy)phenyl) isoindolin-1-one], the midpoint of the response, the EC50, lay at 92 nM.
For the molecule `Cc1nnc(-c2ccc(-c3cccc4c3C(=O)N([C@@H](CO)C3CC3)C4)cc2)o1` [Compound 50, (R)-2-(1-cyclopropyl-2-hydroxyethyl)-7-(4-(5-methyl-1,3,4-oxadiazol-2-yl)phenyl)isoindolin-1-one], the EC50 was 630 nM.
With `Cc1nn(C)c2ccc(-c3c(F)ccc4c3C(=O)N([C@H](C3CC3)C(C)(C)O)C4)cc12` [Compound 55, (R)-2-(1-cyclopropyl-2-hydroxy-2-methylpropyl)-7-(1,3-dimethyl-1H-indazol-5-yl)-6-fluoroisoindolin-1-one] the figure was 0.18 nM; with `Cc1nn(C)c2ccc(-c3ccc(F)c4c3C(=O)N([C@H](C3CC3)C(C)(C)O)C4)cc12` [Compound 56, (R)-2-(1-cyclopropyl-2-hydroxy-2-methylpropyl)-7-(1,3-dimethyl-1H-indazol-5-yl)-4-fluoroisoindolin-1-one], 0.43 nM.
With `COC(C)(C)[C@@H](C1CC1)N1Cc2cccc(-c3ccc(-c4nnc(C)o4)cc3)c2C1=O` [Compound 57, (R)-2-(1-cyclopropyl-2-methoxy-2-methylpropyl)-7-(4-(5-methyl-1,3,4-oxadiazol-2-yl)phenyl)isoindolin-1-one] the figure was 260 nM; with `Cc1nnc(-c2ccc(-c3ccc(O)c4c3C(=O)N([C@H](C3CC3)C(C)(C)O)C4)cc2)o1` [Compound 58, (R)-2-(1-Cyclopropyl-2-hydroxy-2-methylpropyl)-4-hydroxy-7-(4-(5-methyl-1,3,4-oxadiazol-2-yl)phenyl)isoindolin-1-one], 28 nM; with `Cc1nnc(-c2ccc(-c3c(F)cc(O)c4c3C(=O)N([C@H](C3CC3)C(C)(C)O)C4)cc2)o1` [Compound 59, (R)-2-(1-cyclopropyl-2-hydroxy-2-methylpropyl)-6-fluoro-4-hydroxy-7-(4-(5-methyl-1,3,4-oxadiazol-2-yl)phenyl) isoindolin-1-one], 9.9 nM.
The molecule `Cn1cc(-c2ccc(-c3ccc(O)c4c3C(=O)N([C@H](C3CC3)C(C)(C)O)C4)cc2)cn1` [Compound 60, (R)-2-(1-cyclopropyl-2-hydroxy-2-methylpropyl)-4-hydroxy-7-(4-(1-methyl-1H-pyrazol-4-yl)phenyl) isoindolin-1-one] registered a concentration giving a half-maximal response (EC50) of 9.4 nM.
